Reference: US11045435B2, “Methods for treating ocular diseases” (NATUREWISE BIOTECH & MEDICALS CORPORATION, priority 2016, dated 2021)

Key:
HUVECs [1] = experiment: MTT viability / proliferation of HUVECs; assay type: cell-based, human; details: 72 h
Method: ARPE-19 cells were grown in DMEM/F12 medium supplemented with 10% FBS, 100 units/ml penicillin G, and 100 μg/ml streptomycin sulfate. HUVECs were grown in vascular cell basal medium supplemented with endothelial cell growth kit. Cells were incubated in a humidified incubator at 37° C. under 5% CO2 and 95% air.
(§1) MTT assay was used to measure the viability of ARPE-19 cells and HUVECs. 2×10^5 ARPE-19 cells or 5×10^4 HUVECs were seeded in 96-well plates ([…]) and allowed to grow overnight. Negative control was prepared by adding 100 μl medium without cells. The cells were then treated with fresh medium with COMPOUND I (0.03, 0.1, 0.3, 1, 3 and 10 μg/ml) and/or oxidants (NaIO3, H2O2, t-BHP and NaN3) for 12, 24, or 72 hours (200 μl/well). The vehicle control group was treated with vehicle. 20 μl MTT (5 mg/ml) was added to wells, and incubated for another 4 h. After incubation, the medium was discarded and 100 μl DMSO was added to solubilize formazan produced from MTT by the viable cells. Absorbance was measured at 570 nm using a microplate reader (Bio-Rad Laboratories, Inc., CA). Cells viability was calculated according to the following formula: Viability of cells (%)=(absorbance in tested sample−absorbance in negative control)/(absorbance in vehicle control−absorbance in negative control)×100%.

HUVECs [2] = experiment: NaIO3-induced injury in HUVECs (MTT); assay type: cell-based, human; details: 72 h
Method: as §1

[3] = system: Blood-Retinal Barrier Breakdown in Streptozotocin-Induced Diabetic Macular Edema; experiment: Evans blue leakage (blood-retinal barrier breakdown) in streptozotocin-induced diabetic macular edema; assay type: in vivo, Sprague-Dawley female rats
Method: After a 16-hour fast, Sprague-Dawley female rats weighing 200-220 g received a single 60 mg/kg intraperitoneal injection of Streptozotocin (STZ; Sigma-Aldrich, St. Louis, Md.) in 10 mM sodium citrate buffer (pH 4.5; Sigma-Aldrich, St. Louis, Md.). Control rats were fasted and received the buffer alone. Rats with blood glucose levels higher than 375 mg/dL 7 days after receiving STZ were considered to be diabetic. Body weight and blood glucose were detected every week. All experiments were performed in accordance with regulations specified by the Guide for the Care and Handling of Laboratory Animals (NIH Publication no. 85-23). For the treatments, rats were instilled with 0.5% and 1% COMPOUND I eye drops. Both eyes of all rats were instilled with 1 drop of ophthalmic solution 3 times a day for 6 weeks after diabetes production. Rats were treated with 0.5% and 1% COMPOUND I or vehicle solution eye drops 3 times a day for […] after glucose levels determination. Animal care and treatment were followed by the institutional guidelines. After induction of general anesthesia, the right jugular vein and right iliac artery were cannulated with 0.28- and 0.58-mm internal diameter polyethylene tubing, respectively, which were filled with heparinized saline (50 IU heparin/ml saline). Evans blue (Sigma-Aldrich, St. Louis, Md.) was injected through the jugular vein over 10 seconds at a dosage of 45 mg/kg. Immediately after Evans blue infusion, the rats turned visibly blue, confirming their uptake and distribution of the dye. Subsequently, at 15-minute intervals, 0.1 ml blood was drawn from the iliac artery for 2 hours to obtain the time-averaged plasma Evans blue concentration. After the dye had circulated for 120 minutes, the chest cavity was opened, and rats were perfused for 2 minutes via the left ventricle at 37° C. with 0.05 M, pH 3.5, citrate-buffered paraformaldehyde (Sigma-Aldrich, St. Louis, Md.). A pH of 3.5 was used to optimize binding of Evans blue to albumin and the perfusion solution was warmed to 37° C. to prevent vasoconstriction. Immediately after perfusion, both eyes were enucleated and dissected at the equator. The retinas were carefully dissected away under an operating microscope and thoroughly dried in vacuum equipment for 5 hours. The dry weight was used to normalize the quantitation of Evans blue leakage. Evans blue was extracted by incubating each retina in […] formamide (Sigma-Aldrich. St. Louis. Md.) for 18 hours at 70° C. […] The background-subtracted absorbance was determined by measuring each sample at both 620 nm, the absorbance maximum for Evans blue in formamide, and 740 nm, the absorbance minimum. The concentration of dye in the extracts was calculated from a standard curve of Evans blue in formamide. […]

COc1ccc(COc2c(/C=C/C(=O)NO)ccc(OC)c2CC=C(C)C)cc1 [COMPOUND I]
effect on cell growth (HUVECs [1]; 0.03 μg/ml to 1 μg/ml): did not affect cell growth | inhibition at 10 µg/mL (HUVECs [1]; Homo sapiens, HUVEC, 10 μg/ml): 47% | effect on 300 μg/ml NaIO3-induced injury (HUVECs [2]; 0.03 μg/ml to 1 μg/ml, 300 μg/ml NaIO3): reversed | effect on viability in NaIO3-induced injury (HUVECs [2]; 10 μg/ml): significantly enhanced the viability | Evans blue leakage, diabetic vehicle control group as 100% ([3]; 0.5% eye drops 3 times a day): 68% | Evans blue leakage, in words ([3]; 0.5% eye drops 3 times a day): partially | Evans blue leakage, diabetic vehicle control group as 100% ([3]; 1% eye drops 3 times a day): 56% | Evans blue leakage / BRB breakdown, in words ([3]; 1% eye drops 3 times a day, listed as BMX): completely restored
